{
  "source": "ChEMBL document CHEMBL5465560",
  "about": "“Selectivity Literature for EUbOPEN Chemogenomic Library” (2024)",
  "key": {"[1]": {"biological_target": "T1, Serine/threonine-protein kinase TAO1 (Homo sapiens) (UniProt Q7L7X3)", "T1 sequence (whole entry)": "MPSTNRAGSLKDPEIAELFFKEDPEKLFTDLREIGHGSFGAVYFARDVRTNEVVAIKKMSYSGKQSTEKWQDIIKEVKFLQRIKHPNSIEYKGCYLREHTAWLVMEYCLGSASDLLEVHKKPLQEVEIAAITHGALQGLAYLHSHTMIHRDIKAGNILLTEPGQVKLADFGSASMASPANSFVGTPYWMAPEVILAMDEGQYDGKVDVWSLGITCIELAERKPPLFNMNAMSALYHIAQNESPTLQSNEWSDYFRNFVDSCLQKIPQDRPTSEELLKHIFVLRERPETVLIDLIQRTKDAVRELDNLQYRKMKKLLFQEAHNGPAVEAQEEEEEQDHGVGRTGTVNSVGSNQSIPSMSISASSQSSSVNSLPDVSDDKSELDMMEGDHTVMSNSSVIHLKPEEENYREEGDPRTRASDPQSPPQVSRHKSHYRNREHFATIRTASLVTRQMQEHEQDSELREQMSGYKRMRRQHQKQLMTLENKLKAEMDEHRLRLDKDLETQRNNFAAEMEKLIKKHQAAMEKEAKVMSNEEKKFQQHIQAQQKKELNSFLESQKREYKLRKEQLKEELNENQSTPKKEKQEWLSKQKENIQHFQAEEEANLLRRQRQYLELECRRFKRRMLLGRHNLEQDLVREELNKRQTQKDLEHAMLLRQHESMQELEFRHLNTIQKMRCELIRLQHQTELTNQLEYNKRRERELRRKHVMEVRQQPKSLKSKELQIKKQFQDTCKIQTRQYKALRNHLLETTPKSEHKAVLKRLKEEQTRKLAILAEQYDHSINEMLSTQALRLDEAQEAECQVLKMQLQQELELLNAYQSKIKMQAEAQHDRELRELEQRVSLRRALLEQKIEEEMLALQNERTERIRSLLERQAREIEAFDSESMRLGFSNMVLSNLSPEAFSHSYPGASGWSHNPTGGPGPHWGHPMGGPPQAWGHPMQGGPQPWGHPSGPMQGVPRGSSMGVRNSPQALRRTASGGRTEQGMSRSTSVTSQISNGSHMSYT", "experiment": "Selectivity interaction (KinomeScan (DiscoverX)) EUB0001079a TAOK1", "details": "at 1 µM"}, "[2]": {"biological_target": "T2, Mitogen-activated protein kinase 13 (Homo sapiens) (UniProt O15264)", "T2 sequence (whole entry)": "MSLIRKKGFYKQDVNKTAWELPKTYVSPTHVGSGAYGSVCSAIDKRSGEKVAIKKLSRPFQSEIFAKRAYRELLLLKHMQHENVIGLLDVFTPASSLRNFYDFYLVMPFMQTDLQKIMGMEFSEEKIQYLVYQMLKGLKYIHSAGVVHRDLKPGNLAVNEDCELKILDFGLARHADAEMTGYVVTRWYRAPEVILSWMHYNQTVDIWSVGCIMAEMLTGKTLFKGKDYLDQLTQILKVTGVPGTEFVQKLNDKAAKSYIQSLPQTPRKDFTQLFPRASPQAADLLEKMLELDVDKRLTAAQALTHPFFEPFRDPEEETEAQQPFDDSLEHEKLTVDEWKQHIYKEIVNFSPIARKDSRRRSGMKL", "experiment": "Selectivity interaction (KinomeScan (DiscoverX)) EUB0001079a MAPK13", "details": "at 1 µM"}, "[3]": {"biological_target": "Calcium/calmodulin-dependent protein kinase kinase 2 (Homo sapiens) (UniProt Q96RR4)", "sequence (Q96RR4 2-588 limits assumed)": "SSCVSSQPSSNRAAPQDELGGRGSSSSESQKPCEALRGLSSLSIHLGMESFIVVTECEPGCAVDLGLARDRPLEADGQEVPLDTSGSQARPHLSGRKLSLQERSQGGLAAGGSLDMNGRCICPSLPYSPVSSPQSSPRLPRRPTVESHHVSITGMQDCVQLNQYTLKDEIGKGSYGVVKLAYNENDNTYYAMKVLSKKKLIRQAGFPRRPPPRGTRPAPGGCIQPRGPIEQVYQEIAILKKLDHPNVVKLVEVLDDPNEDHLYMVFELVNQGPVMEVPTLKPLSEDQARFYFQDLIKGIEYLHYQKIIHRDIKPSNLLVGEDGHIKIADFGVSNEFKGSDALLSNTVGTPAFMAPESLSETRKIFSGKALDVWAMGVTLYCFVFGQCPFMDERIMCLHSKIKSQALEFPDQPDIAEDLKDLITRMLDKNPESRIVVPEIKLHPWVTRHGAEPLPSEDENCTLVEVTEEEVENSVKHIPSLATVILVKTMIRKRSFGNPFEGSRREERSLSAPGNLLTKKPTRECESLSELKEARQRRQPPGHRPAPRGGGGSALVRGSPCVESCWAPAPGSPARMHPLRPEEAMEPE", "experiment": "Selectivity interaction (ProQinase) EUB0000171b CAMKK2"}, "Activated CDC42 kinase 1": {"biological_target": "Activated CDC42 kinase 1 (Homo sapiens, UniProt Q07912)", "sequence (Q07912 whole entry, looked up)": "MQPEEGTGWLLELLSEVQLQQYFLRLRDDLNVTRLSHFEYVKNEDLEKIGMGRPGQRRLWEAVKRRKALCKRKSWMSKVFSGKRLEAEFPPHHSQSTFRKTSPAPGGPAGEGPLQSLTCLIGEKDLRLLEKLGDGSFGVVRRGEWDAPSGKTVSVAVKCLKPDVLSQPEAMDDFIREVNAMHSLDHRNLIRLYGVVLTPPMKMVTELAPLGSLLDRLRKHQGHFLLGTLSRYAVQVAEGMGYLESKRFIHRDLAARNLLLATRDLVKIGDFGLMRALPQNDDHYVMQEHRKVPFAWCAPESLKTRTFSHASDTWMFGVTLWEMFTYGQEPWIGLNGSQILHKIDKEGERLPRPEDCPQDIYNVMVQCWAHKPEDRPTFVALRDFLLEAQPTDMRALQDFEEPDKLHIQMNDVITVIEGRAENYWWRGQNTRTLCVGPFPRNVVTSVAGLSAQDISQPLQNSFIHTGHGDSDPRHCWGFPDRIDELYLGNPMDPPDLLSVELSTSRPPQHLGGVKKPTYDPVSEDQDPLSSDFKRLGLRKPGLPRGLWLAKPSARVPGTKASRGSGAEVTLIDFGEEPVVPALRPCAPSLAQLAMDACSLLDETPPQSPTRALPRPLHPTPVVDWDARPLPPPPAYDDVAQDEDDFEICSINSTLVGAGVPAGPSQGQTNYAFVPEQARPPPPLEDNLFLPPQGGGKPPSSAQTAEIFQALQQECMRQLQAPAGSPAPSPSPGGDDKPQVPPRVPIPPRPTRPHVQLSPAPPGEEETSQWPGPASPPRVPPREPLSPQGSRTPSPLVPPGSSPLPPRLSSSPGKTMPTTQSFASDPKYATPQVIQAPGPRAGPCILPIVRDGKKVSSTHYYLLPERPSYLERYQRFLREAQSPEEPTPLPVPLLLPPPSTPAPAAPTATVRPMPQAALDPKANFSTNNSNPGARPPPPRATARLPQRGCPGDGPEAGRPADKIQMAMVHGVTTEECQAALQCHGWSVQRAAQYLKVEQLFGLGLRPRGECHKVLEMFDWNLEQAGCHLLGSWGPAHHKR", "experiment": "Selectivity interaction (ActivX KiNativ screen (ex vivo kinase selectivity in human PBMCs)) EUB0001619a TNK2", "assay_type": "cell-based", "details": "PBMC, at 1 µM"}, "[4]": {"biological_target": "T3, Serine/threonine-protein kinase NLK (Homo sapiens) (UniProt Q9UBE8)", "T3 sequence (whole entry)": "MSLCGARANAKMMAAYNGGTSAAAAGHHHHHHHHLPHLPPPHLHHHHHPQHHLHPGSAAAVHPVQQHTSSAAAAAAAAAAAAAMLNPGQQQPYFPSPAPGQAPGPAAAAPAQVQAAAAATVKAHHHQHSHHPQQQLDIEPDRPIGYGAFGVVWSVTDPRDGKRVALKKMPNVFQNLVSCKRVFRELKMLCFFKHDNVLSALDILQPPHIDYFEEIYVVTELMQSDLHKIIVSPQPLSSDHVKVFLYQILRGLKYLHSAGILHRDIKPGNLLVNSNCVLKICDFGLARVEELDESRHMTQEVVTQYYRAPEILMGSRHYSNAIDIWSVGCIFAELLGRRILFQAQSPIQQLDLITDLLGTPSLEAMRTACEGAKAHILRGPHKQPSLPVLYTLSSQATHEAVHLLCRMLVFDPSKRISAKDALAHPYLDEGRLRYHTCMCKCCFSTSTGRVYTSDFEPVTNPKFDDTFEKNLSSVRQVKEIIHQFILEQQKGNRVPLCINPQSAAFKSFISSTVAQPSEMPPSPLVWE", "experiment": "Selectivity interaction (Kinase panel (Invitrogen)) EUB0000639a NLK", "details": "at 200 nM"}, "[5]": {"biological_target": "Cyclin-dependent kinase 17 (Homo sapiens) (UniProt Q00537)", "sequence (Q00537 whole entry, looked up)": "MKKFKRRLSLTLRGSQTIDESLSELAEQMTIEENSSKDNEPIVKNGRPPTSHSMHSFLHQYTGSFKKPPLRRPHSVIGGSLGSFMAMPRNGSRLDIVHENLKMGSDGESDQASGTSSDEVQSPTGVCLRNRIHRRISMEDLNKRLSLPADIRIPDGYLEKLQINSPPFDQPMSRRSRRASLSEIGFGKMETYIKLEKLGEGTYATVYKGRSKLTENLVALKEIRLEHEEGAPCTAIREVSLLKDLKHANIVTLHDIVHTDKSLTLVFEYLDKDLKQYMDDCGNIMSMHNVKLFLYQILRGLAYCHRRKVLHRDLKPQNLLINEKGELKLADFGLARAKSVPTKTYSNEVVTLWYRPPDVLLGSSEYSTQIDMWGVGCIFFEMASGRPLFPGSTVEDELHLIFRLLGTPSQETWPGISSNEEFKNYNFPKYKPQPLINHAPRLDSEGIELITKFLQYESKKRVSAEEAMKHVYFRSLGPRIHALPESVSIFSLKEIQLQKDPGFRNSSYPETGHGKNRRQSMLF", "experiment": "Selectivity interaction (KinomeScan (DiscoverX)) EUB0000655a CDK17", "details": "at 10 µM"}, "[6]": {"biological_target": "RAC-alpha serine/threonine-protein kinase (Homo sapiens, UniProt P31749)", "sequence (P31749 whole entry)": "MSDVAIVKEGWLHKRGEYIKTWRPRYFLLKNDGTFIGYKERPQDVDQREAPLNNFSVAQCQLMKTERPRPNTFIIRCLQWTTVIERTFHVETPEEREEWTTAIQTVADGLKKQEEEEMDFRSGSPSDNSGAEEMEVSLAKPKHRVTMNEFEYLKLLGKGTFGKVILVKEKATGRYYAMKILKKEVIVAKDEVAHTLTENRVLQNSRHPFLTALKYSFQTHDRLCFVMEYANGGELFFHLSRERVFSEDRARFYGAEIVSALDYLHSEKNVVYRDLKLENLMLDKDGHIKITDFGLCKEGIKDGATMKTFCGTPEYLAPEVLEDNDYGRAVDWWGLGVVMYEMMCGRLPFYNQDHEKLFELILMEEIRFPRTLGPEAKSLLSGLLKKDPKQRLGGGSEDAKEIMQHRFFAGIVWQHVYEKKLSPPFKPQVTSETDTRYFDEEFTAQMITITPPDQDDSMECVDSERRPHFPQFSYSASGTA", "experiment": "Selectivity interaction (KinomeScan (DiscoverX)) EUB0000092b AKT1", "details": "at 10 µM"}, "[7]": {"biological_target": "T3, Serine/threonine-protein kinase NLK (Homo sapiens)", "experiment": "Selectivity interaction (Ambit KINOMEscan and KiNATiv profiling in Jurkat cells) EUB0000090b NLK", "assay_type": "cell-based", "details": "at 1 µM"}},
  "data": [
    {"smiles": "Nc1cnc(N2CCc3cc(S(=O)(=O)Nc4c(F)cc(Cl)cc4F)cc(N4CCCC4=O)c32)nc1", "note": "[TP-020n]", "values": [
      {"measurement": "% of control", "setting": "[1]", "value": 80, "unit": "%"},
      {"measurement": "% of control", "setting": "[2]", "value": 100, "unit": "%"}
    ]},
    {"smiles": "C=CC(=O)Nc1cccc(C(=O)Nc2ccc(Nc3cc(-c4[nH]c(SC)nc4C)ccn3)cc2)c1", "values": [
      {"measurement": "% of control", "setting": "[3]; at 1 µM", "value": 83, "unit": "%"},
      {"measurement": "% of control", "setting": "[3]; at 5 µM", "value": 86, "unit": "%"}
    ]},
    {"smiles": "N#Cc1cccc(-c2c[nH]c3ncnc(N4CCOCC4)c23)c1", "values": [
      {"measurement": "% of inhibition", "setting": "Activated CDC42 kinase 1", "value": 8, "unit": "%"}
    ]},
    {"smiles": "CC[C@@H]1[C@H](F)C(=O)N[C@@H]1COc1nccc2cc(C(N)=O)c(OC)cc12", "note": "[ZIMLOVISERTIB]", "values": [
      {"measurement": "% of inhibition", "setting": "[4]", "value": 10.2, "unit": "%"}
    ]},
    {"smiles": "CN(C)CCOc1ccc(-c2nc(-c3ccncc3)c(-c3ccc4c(c3)CC/C4=N\\O)[nH]2)cc1", "values": [
      {"measurement": "% of control", "setting": "[5]", "value": 87, "unit": "%"}
    ]},
    {"smiles": "CCC(=O)N1CCN(c2ccc(-n3c(=O)ccc4cnc5ccc(-c6cnc7ccccc7c6)cc5c43)cc2C(F)(F)F)CC1", "values": [
      {"measurement": "% of control", "setting": "[6]", "value": 91, "unit": "%"}
    ]},
    {"smiles": "CN(C)C/C=C/C(=O)Nc1ccc(C(=O)N2CCCC(Nc3ncc(Cl)c(-c4c[nH]c5ccccc45)n3)C2)cc1", "note": "(centres undefined)", "values": [
      {"measurement": "% of control", "setting": "[7]", "value": 52, "unit": "%"}
    ]}
  ]
}
